Experiments:
Bacteroides fragilis NT = test: IC25 growth inhibition; higher = less potent
Procedure, shortened: (§1)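 Monocultures grown overnight in mGAM were added to pre-reduced plates holding twofold drug dilutions, giving a starting OD578 of 0.01 and 1% DMSO (or water). Growth was followed anaerobically by hourly OD578 readings in a plate reader, with at least three biological replicates. The median growth-curve AUC per concentration was forced to be monotonic. IC25 was the lowest concentration with median AUC below 0.75, reported as a tested interval.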

[1] = system: Bacteroides thetaiotaomicron; test: IC25 growth inhibition; higher = less potent
Procedure, shortened: as §1

Bacteroides uniformis = test: IC25 growth inhibition; higher = less potent
Procedure, shortened: as §1

Bacteroides vulgatus = test: IC25 growth inhibition; higher = less potent
Procedure, shortened: as §1

Clostridium bolteae = test: IC25 growth inhibition; higher = less potent
Procedure, shortened: as §1

Clostridium perfringens = test: IC25 growth inhibition; higher = less potent
Procedure, shortened: as §1

Clostridium ramosum = test: IC25 growth inhibition; higher = less potent
Procedure, shortened: as §1

[2] = system: Clostridium saccharolyticum; test: IC25 growth inhibition; higher = less potent
Procedure, shortened: as §1

Collinsella aerofaciens = test: IC25 growth inhibition; higher = less potent
Procedure, shortened: as §1

Coprococcus comes = test: IC25 growth inhibition; higher = less potent
Procedure, shortened: as §1

Dorea formicigenerans = test: IC25 growth inhibition; higher = less potent
Procedure, shortened: as §1

Escherichia coli ED1a = test: IC25 growth inhibition; higher = less potent
Procedure, shortened: as §1

Eubacterium rectale = test: IC25 growth inhibition; higher = less potent
Procedure, shortened: as §1

[3] = system: Fusobacterium nucleatum subsp. Nucleatum; test: IC25 growth inhibition; higher = less potent
Procedure, shortened: as §1

Parabacteroides merdae = test: IC25 growth inhibition; higher = less potent
Procedure, shortened: as §1

Roseburia intestinalis = test: IC25 growth inhibition; higher = less potent
Procedure, shortened: as §1

Ruminococcus gnavus = test: IC25 growth inhibition; higher = less potent
Procedure, shortened: as §1

[4] = system: Salmonella enterica typhimurium; test: IC25 growth inhibition; higher = less potent
Procedure, shortened: as §1

Shigella flexneri = test: IC25 growth inhibition; higher = less potent
Procedure, shortened: as §1

[5] = system: Streptococcus parasanguinis; test: IC25 growth inhibition; higher = less potent
Procedure, shortened: as §1

Streptococcus salivarius = test: IC25 growth inhibition; higher = less potent
Procedure, shortened: as §1

Vibrio cholerae = test: IC25 growth inhibition; higher = less potent
Procedure, shortened: as §1

[6] = system: Yersinia enterocolitica WA-314; test: IC25 growth inhibition; higher = less potent
Procedure, shortened: as §1

[7] = system: Yersinia pseudotuberculosis; test: IC25 growth inhibition; higher = less potent
Procedure, shortened: as §1

[8] = system: Com21 synthetic gut community; test: community biomass OD578 after 24 h drug treatment relative to untreated (fraction of untreated control); higher = more community growth; conditions: community: Com21 (Com20 + E. coli ED1a)
Experimental: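 Com21 (Com20 plus E. coli ED1a) was treated with drug for 24 h under anaerobic conditions in mGAM. Community OD578 was then measured and normalised to untreated Com21; mean of 3 biological replicates.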

[9] = drug pretreatment concentration 10 µM
[10] = drug pretreatment concentration 20 µM
[11] = drug pretreatment concentration 40 µM
[12] = drug pretreatment concentration 80 µM
[13] = drug pretreatment concentration 160 µM
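Throughout, for IC25 growth inhibition: lowest concentration where monotonic median growth AUC falls below 0.75 of drug-free control.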

Row | Compound | IC25 growth inhibition (Bacteroides fragilis NT) [µM] | IC25 growth inhibition [1] [µM] | IC25 growth inhibition (Bacteroides uniformis) [µM] | IC25 growth inhibition (Bacteroides vulgatus) [µM] | IC25 growth inhibition (Clostridium bolteae) [µM] | IC25 growth inhibition (Clostridium perfringens) [µM] | IC25 growth inhibition (Clostridium ramosum) [µM] | IC25 growth inhibition [2] [µM] | IC25 growth inhibition (Collinsella aerofaciens) [µM] | IC25 growth inhibition (Coprococcus comes) [µM] | IC25 growth inhibition (Dorea formicigenerans) [µM] | IC25 growth inhibition (Escherichia coli ED1a) [µM] | IC25 growth inhibition (Eubacterium rectale) [µM] | IC25 growth inhibition [3] [µM] | IC25 growth inhibition (Parabacteroides merdae) [µM] | IC25 growth inhibition (Roseburia intestinalis) [µM] | IC25 growth inhibition (Ruminococcus gnavus) [µM] | IC25 growth inhibition [4] [µM] | IC25 growth inhibition (Shigella flexneri) [µM] | IC25 growth inhibition [5] [µM] | IC25 growth inhibition (Streptococcus salivarius) [µM] | IC25 growth inhibition (Vibrio cholerae) [µM] | IC25 growth inhibition [6] [µM] | IC25 growth inhibition [7] [µM] | community biomass OD578 [8, 9] | community biomass OD578 [8, 10] | community biomass OD578 [8, 11] | community biomass OD578 [8, 12] | community biomass OD578 [8, 13]
1 | CC(CN1c2ccccc2Sc2ccccc21)N(C)C (stereo not given) [Promethazine] | ≤ 160 | ≤ 80 | > 160 | ≤ 20 | > 160 | ≤ 160 | > 160 | > 160 | > 160 | ≤ 160 | ≤ 160 | > 160 | ≤ 160 | > 160 | ≤ 10 | ≤ 160 | ≤ 160 | > 160 | > 160 | > 160 | ≤ 160 | ≤ 160 | > 160 | ≤ 160 | 0.987 | 1.01 | 0.99 | 0.991 | 0.949
2 | CNCCCC1c2ccccc2C=Cc2ccccc21 [Protriptyline] | > 160 | ≤ 80 | ≤ 160 | ≤ 40 | > 160 | > 160 | > 160 | > 160 | > 160 | > 160 | > 160 | > 160 | > 160 | ≤ 160 | > 160 | > 160 | > 160 | > 160 | > 160 | > 160 | > 160 | > 160 | ≤ 160 | > 160 | 0.995 | 1.02 | 1.01 | 0.991 | 0.956
3 | O=C1NCCN1CCN1CCC(c2cn(-c3ccc(F)cc3)c3ccc(Cl)cc23)CC1 [Sertindole] | ≤ 40 | ≤ 40 | ≤ 20 | ≤ 20 | ≤ 80 | ≤ 80 | ≤ 80 | ≤ 40 | ≤ 40 | ≤ 80 | ≤ 20 | > 160 | ≤ 20 | ≤ 40 | ≤ 40 | ≤ 20 | ≤ 40 | > 160 | > 80 | ≤ 80 | ≤ 20 | ≤ 80 | > 80 | ≤ 160 | 1.01 | 0.991 | 0.99 | 0.786 | 0.451
4 | CCC(C)(C)C(=O)O[C@H]1C[C@@H](C)C=C2C=C[C@H](C)[C@H](CC[C@@H]3C[C@@H](O)CC(=O)O3)[C@H]21 [Simvastatin] | ≤ 40 | ≤ 40 | ≤ 40 | ≤ 20 | > 80 | ≤ 40 | ≤ 40 | ≤ 80 | ≤ 80 | > 80 | ≤ 80 | > 160 | ≤ 20 | > 80 | ≤ 40 | ≤ 20 | ≤ 40 | > 80 | > 80 | ≤ 80 | ≤ 20 | > 80 | > 80 | > 80 | – | 0.99 | 0.946 | 0.844 | 0.687

— the supplement of paper PMC12350171
